{"source": "patent US20080085244A1", "about": "“Methods for identifying and using amyloid-inhibitory compounds” (Wyeth, priority 1999, published 2008)", "key": {"[1]": {"assay": "Uterine weight (E2-induced hypertrophy) in ovariectomized guinea pigs", "format": "in vivo, guinea pig", "procedure": "Maintenance of animals and treatment. Ovariectomized (ovx) and intact female guinea pigs were purchased from Hilltop Laboratories (Scottsdale, Pa.); ovx animals were 8 weeks old at the time of surgery. 17β-estradiol (E2) was purchased from Sigma (St. Louis, Mo.). Throughout the study, the animals were fed ad libitum in a controlled lighting environment (12 h/12 h light/dark cycles). After the surgery, the ovx guinea pigs were put on a casein-based, soy-free diet (Purina, Richmond, Ind.) to exclude the presence of phytosteroids in the diet. The intact animals also began receiving soy-free food at approximately 8 weeks of age. […] E2 was administered per os by powdering the hormone into the soy-free chow. Prior to the beginning of the treatment, all animals were weighed. The average daily food intake for each animal using this particular diet was determined in a preliminary experiment.\nTissue collection. At the end of the treatment, all animals were sacrificed by decapitation. Trunk blood was collected for determination of E2 levels in the serum by radioimmunoassay (Diagnostic Products Laboratory). Uteri were removed and weighed to establish E2-induced hypertrophy. The brains were immediately removed, and the cerebellum was dissected away from each brain. The rest of the brain was divided into hemispheres which were snap-frozen and stored at −80° C.\nSeven ovx guinea pigs (8 weeks old at the time of ovx) were used. After ovx, the animals were fed soy-free, casein-based diet to avoid the consumption of estrogenic phytosteroids. […] E2 was administered per os by powdering the hormone into the soy-free chow. […] After the treatment, all animals were sacrificed, and blood, uteri, and brains were collected for analysis. Uterine weights and serum E2 levels were determined to document the hormonal status. The levels of Aβ40, Aβ42, and sAPPα in brain tissue were determined using Aβ40- and Aβ42-specific ELISA assays and quantitative immunoblotting, respectively, as described in Methods.\nAt the end of the E2 treatment, all animals were sacrificed by decapitation, and blood, uteri, and brains were isolated and subjected to analysis."}, "brain Aβ (Aβ40, Aβ42)": {"tested_on": "brain Aβ (Aβ40, Aβ42)", "assay": "Brain Aβ40, Aβ42 and total Aβ levels by ELISA of DEA brain extracts of ovariectomized guinea pigs", "format": "in vivo, guinea pig", "procedure": "Maintenance of animals and treatment. Ovariectomized (ovx) and intact female guinea pigs were purchased from Hilltop Laboratories (Scottsdale, Pa.); ovx animals were 8 weeks old at the time of surgery. […] Throughout the study, the animals were fed ad libitum in a controlled lighting environment (12 h/12 h light/dark cycles). After the surgery, the ovx guinea pigs were put on a casein-based, soy-free diet (Purina, Richmond, Ind.) to exclude the presence of phytosteroids in the diet. The intact animals also began receiving soy-free food at approximately 8 weeks of age. […] Prior to the beginning of the treatment, all animals were weighed. The average daily food intake for each animal using this particular diet was determined in a preliminary experiment.\nTissue collection. At the end of the treatment, all animals were sacrificed by decapitation. […] The brains were immediately removed, and the cerebellum was dissected away from each brain. The rest of the brain was divided into hemispheres which were snap-frozen and stored at −80° C.\nPreparation of Brain Extracts. Soluble Proteins from the Brains were Recovered using a modification of an established protocol (Savage et al., J. Neurosci., 1998, 18:1743-52). Briefly, the hemispheres were homogenized in 0.2% diethylamine (DEA)/50 mM NaCl at 1:10 w/v ratio, with 5-6 strokes of a Dounce homogenizer. The DEA homogenate was centrifuged for 90 min at 100,000 g. The DEA supernatants were neutralized to pH about 8.0 by addition of 1/10th vol. of 0.5M Tris-Cl pH 6.8, then aliquoted and snap-frozen. The pellets of the DEA extracts were solubilized in 2% SDS/PBS containing a cocktail of protease inhibitors (“Complete”, Boehringer Mannheim, Germany), sonicated and boiled. The protein concentrations of the DEA and SDS supernatants were determined using the BCA reagent assay kit (Pierce, Rockford, Ill.).\nDetection of sAPPα, flAPP, Aβ40 and Aβ42. The amino acid sequence of APP from guinea pigs is 97% identical to the human APP homologue and the Aβ region is 100% identical to human Aβ (Beck et al., Biochim. Biophys. Acta, 1997, 1351:17-21), thus enabling use of well characterized Aβ antibodies to study the effects of estrogen on APP metabolism.\nThe levels of Aβ40 and Aβ42 were determined by Aβ40- and Aβ42-specific ELISA assays (Mehta et al, Neurosci. Lett., 1998, 241:13-16). For each animal, the levels of Aβ40, Aβ42, and total Aβ were standardized to brain tissue weight and expressed as ng (Aβ)/g (brain tissue, wet weight). In all experiments, animals were coded prior to tissue collection, and the treatment status of each animal was unknown to the investigators at the time of the assays.\nSeven ovx guinea pigs (8 weeks old at the time of ovx) were used. After ovx, the animals were fed soy-free, casein-based diet to avoid the consumption of estrogenic phytosteroids. […] After the treatment, all animals were sacrificed, and blood, uteri, and brains were collected for analysis. […] The levels of Aβ40, Aβ42, and sAPPα in brain tissue were determined using Aβ40- and Aβ42-specific ELISA assays and quantitative immunoblotting, respectively, as described in Methods."}, "[2]": {"assay": "Serum E2 levels in ovariectomized APP transgenic rodents", "format": "in vivo, transgenic mice and rats (human APP)", "settings": "ovx APP transgenic rodents, E2 in chow 10 days, compared to untreated ovx", "source_text": "(§1) Transgenic APP and APP/PS rodents. Transgenic animals relevant to Alzheimer's Disease have been reviewed (Seabrook and Rosahl, Neuropharmacology, 1999, 38:1-17; see, Detailed Description, supra). Both mice and rats have been made transgenic for APP, for PS1 and for both genes, and with wild-type and FAD mutant forms of the genes,. One group of these animals is ovariectomized. 17β-Estradiol (E2) is purchased from Sigma (St. Louis, Mo.). Animals are fed ad libitum in a controlled lighting environment, using a casine-based, soy-free diet, as described in Example 1. […] E2 is administered per os by powdering the hormone in the soy-free chow. All animals are weighed at the beginning prior to treatment. Average daily food intake is determined prior to treatment as well.\n(§2) Tissue collection. After treatment, all animals are sacrificed by decapitation. Trunk blood is collected for determination of E2 levels. Uteri are removed and weighed to establish the presence of atrophy due to estrogen deficiency or E2-induced hypertrophy. Brains are immediately removed and the cerebellum dissected away. The brain is divided into hemispheres which are snap-frozen and stored at −80° C."}, "[3]": {"assay": "Uterine weight in ovariectomized APP transgenic rodents", "format": "in vivo, transgenic mice and rats (human APP)", "settings": "ovx APP transgenic rodents, E2 in chow 10 days, compared to untreated ovx", "source_text": "as §1, §2"}, "brain Aβ": {"tested_on": "brain Aβ", "assay": "Brain Aβ levels in ovariectomized APP transgenic rodents", "format": "in vivo, transgenic mice and rats (human APP)", "settings": "ovx APP transgenic rodents; approaching the levels found in intact animals", "source_text": "Preparation of Brain Extracts.\nDetection of sAPPα, flAPP, Aβ40 and Aβ42."}, "Aβ40 and Aβ42 peptides [4]": {"tested_on": "Aβ40 and Aβ42 peptides", "settings": "physiological concentrations; rodent primary neuronal (embryonic cerebral cortex) cultures; cited from earlier work"}, "Aβ40 and Aβ42 peptides [5]": {"tested_on": "Aβ40 and Aβ42 peptides", "settings": "physiological concentrations; human primary neuronal (embryonic cerebral cortex) cultures; cited from earlier work"}, "[6]": {"settings": "ovx + high-dose E2, 5 mg E2/kg BW/day per os, 10 days"}, "[7]": {"settings": "ovx + low-dose E2, 1 mg E2/kg BW/day per os, 10 days"}}, "note": "Like-named read-outs stand apart in the source and are kept apart here.", "data": [{"smiles": "C[C@]12CC[C@@H]3c4ccc(O)cc4CC[C@H]3[C@@H]1CC[C@@H]2O", "note": "[E2, 17β-estradiol]", "values": [{"measurement": "increase in uterine weight, ovx+E2 group compared to ovx group", "setting": "[1]; first experiment, 1 mg E2/kg BW/day per os, 10 days, p=0.0003", "result": "greater than 3 fold"}, {"measurement": "state of uteri", "setting": "[1]; high-dose E2 for 10 days, weights did not exceed the low-dose group", "result": "uterine hypertrophy"}, {"measurement": "state of uteri", "setting": "[1]; low-dose E2 for 10 days, weights comparable to or higher than intact group", "result": "hypertrophied"}, {"measurement": "Uterine weight mean +/− SEM", "setting": "[1]; [6]", "result": "1.03 ± 0.08", "unit": "g"}, {"measurement": "Uterine weight median", "setting": "[1]; [6]", "result": 1.055, "unit": "g"}, {"measurement": "Uterine weight mean +/− SEM", "setting": "[1]; [7]", "result": "1.4 ± 0.18", "unit": "g"}, {"measurement": "Uterine weight median", "setting": "[1]; [7]", "result": 1.37, "unit": "g"}, {"measurement": "average decrease in total Aβ levels in brain compared to ovx group", "setting": "brain Aβ (Aβ40, Aβ42); first experiment, 1 mg E2/kg BW/day per os, 10 days, p=0.09", "result": 20, "unit": "%"}, {"measurement": "Total Aβ (median)", "setting": "brain Aβ (Aβ40, Aβ42); [6]", "result": 2.094, "unit": "ngAβ/g brain tissue"}, {"measurement": "Total Aβ mean +/− SEM", "setting": "brain Aβ (Aβ40, Aβ42); [6]", "result": "1.998 +/− 0.175 ngAβ/g brain tissue"}, {"measurement": "Total Aβ (median)", "setting": "brain Aβ (Aβ40, Aβ42); [7]", "result": 2.063, "unit": "ngAβ/g brain tissue"}, {"measurement": "Total Aβ mean +/− SEM", "setting": "brain Aβ (Aβ40, Aβ42); [7]", "result": "2.023 +/− 0.134 ngAβ/g brain tissue"}, {"measurement": "average decrease in ovx-associated increase in brain Aβ levels (summary statement)", "setting": "brain Aβ (Aβ40, Aβ42); ovx guinea pigs, E2 for ten days beginning 8 weeks after ovx, p<0.01", "result": 20, "unit": "%"}, {"measurement": "average decrease for Aβ40 compared to ovx", "setting": "brain Aβ (Aβ40, Aβ42); second experiment, low-dose E2 10 days, p<0.01", "result": 18, "unit": "%"}, {"measurement": "average decrease for Aβ42 compared to ovx", "setting": "brain Aβ (Aβ40, Aβ42); second experiment, low-dose E2 10 days, p=0.033", "result": 21, "unit": "%"}, {"measurement": "average decrease of total brain Aβ levels compared to ovx", "setting": "brain Aβ (Aβ40, Aβ42); second experiment, low-dose E2 (1 mg/kg BW/day) 10 days, p<0.01", "result": 18, "unit": "%"}, {"measurement": "serum E2 levels after oral E2", "setting": "[2]", "result": "dramatic increase"}, {"measurement": "uterine effect of oral E2", "setting": "[3]", "result": "uterine hypertrophy"}, {"measurement": "levels of brain Aβ after E2 treatment", "setting": "brain Aβ", "result": "decrease"}, {"measurement": "levels of Aβ40 and Aβ42 peptides released", "setting": "Aβ40 and Aβ42 peptides [4]", "result": "decreased"}, {"measurement": "levels of Aβ40 and Aβ42 peptides released", "setting": "Aβ40 and Aβ42 peptides [5]", "result": "decreased"}]}]}
